# Measurements as given in patent publication US4713453A, “Oxabicycloheptane derivatives” (Suntori Limited, priority 1986, dated 1987).
# How the values were obtained:
# Male ddY mice = experiment: Anti-cerebroischemic effect (brain protection after ischemia by decapitation): gasping time; assay type: in vivo, mouse (male ddY); settings: intraperitoneal, 30 min before decapitation
# Procedure: 1. Anti-cerebroischemic effect (i.e., brain protection after ischemia by decapitation)
# Male ddY mice weighing 22-30 g were used in groups each consisting of 6 animals. Test compounds were administered intraperitoneally to the mice which were decapitated 30 minutes after the administration. The gasping time, or the duration of time between the onset of panting after decapitation and its cessation, was measured, and this was compared with the gasping time for a control group which were given only a liquid vehicle.
# peroxylipid formation = experiment: Anti-lipidperoxidation effect (TBA assay of malondialdehyde in rat brain homogenate); assay type: biochemical, rat (male Wistar); settings: for Inhibition of peroxylipid formation: 10 μl (10^-4 M) test compound in 990 μl sample, 37° C., 30 minutes, pH 7.4; for anti-lipidperoxidation effects: rat brain homogenate
# Procedure: 3. Anti-lipidperoxidation effect
# Male Wistar rats weighing 200-250 g were used. The brain of each rat was extracted after decapitation, homogenized with 50 mM of a phosphate buffer solution (PBS, pH 7.4) and centrifuged at 1,000 g for 15 minutes. The supernatant was stored frozen at -30° C. Before use, it was thawed under flowing water and diluted with PBS three-fold to prepare a live sample.
# Two samples were prepared by adding 10 μl (10^-4 M) of a test compound in solution to 990 μl of the live sample. One sample was incubated at 37° C. for 30 minutes and reaction was quenched by addition of 0.2 ml of 35% aqueous perchloric acid. The other sample was immediately mixed with 35% perchloric acid without incubation. Each of the mixtures was centrifuged at 3,000 rpm for 15 minutes and 0.5 ml of the supernatant was subjected to TBA assay (Yagi et al., Anal. Biochem., 95, 351 (1979)) for determining the malondialdehyde (MDA) content (×10^-4 M) by subtracting the peroxylipid level for the unincubated mixture from that for the incubated mixture. The percent inhibition of peroxylipid formation was calculated by the following formula: [formula] where A is the MDA content of a treated sample and B is the value for a control sample that was not treated with any test compound.
SMILES,prolongation of gasping time (Male ddY mice; 25 mg/kg),Inhibition of peroxylipid formation (peroxylipid formation) [%],anti-lipidperoxidation effects (peroxylipid formation),prolongation of gasping time (Male ddY mice; 12.5 mg/kg)
"CN(C)CCON=C1c2ccccc2OC2(c3ccccc3)CC12 (centres unmarked) [Example 1, 3,4-Benzo-5-(2-dimethylaminoethyl)oxyimino-1-phenyl-2-oxabicyclo[4.1.0]heptane]",significantly prolonging the gasping time,56.9,–,–
"CN(C)CCON=C1c2ccc(Cl)cc2OC2(c3ccccc3)CC12 (centres unmarked) [Example 8, 3,4-(3-Chlorobenzo)-5-(2-dimethylaminoethyl)oxaimino-1-phenyl-2-oxabicyclo[4.1.0]heptane]",significantly prolonging the gasping time,90.2,strong anti-lipidperoxidation effects,–
CN(C)CCCON=C1c2ccc(Cl)cc2OC2(c3ccccc3)CC12 (centres unmarked) [Example 9],significantly prolonging the gasping time,82.7,strong anti-lipidperoxidation effects,–
"CN(C)CCCON=C1c2ccc(Cl)cc2OC2(c3ccc([N+](=O)[O-])cc3)CC12 (centres unmarked) [Example 12, 3,4-(3-Chlorobenzo)-5-(3-dimethylaminopropyl)oxyimino-1-(4-nitrophenyl)-2-oxabicyclo[4.1.0]heptane]",–,99.0,strong anti-lipidperoxidation effects,–
CCN(CC)CCCON=C1c2ccccc2OC2(c3ccccc3)CC12 (centres unmarked) [Example 16],–,83.3,strong anti-lipidperoxidation effects,–
"CN(C)CCCCON=C1c2ccccc2OC2(c3ccccc3)CC12 (centres unmarked) [Example 19, 3,4-Benzo-5-(4-dimethylaminobutyl)oxyimino-1-phenyl-2-oxabicyclo[4.1.0]heptane]",–,52.6,–,–
"CNCCCCON=C1c2ccccc2OC2(c3ccccc3)CC12 (centres unmarked) [Example 20, 3,4-Benzo-5-(4-methylaminobutyl)oxyimino-1-phenyl-2-oxabicyclo[4.1.0]heptan]",significantly prolonging the gasping time,–,–,–
"CN(C)CCCOC1c2ccccc2OC2(c3ccccc3)CC12 (centres unmarked) [Example 24, 3,4-Benzo-5-(3-dimethylaminopropyl)oxy-1-phenyl-2-oxabicyclo[4.1.0]heptane]",significantly prolonging the gasping time,–,–,significant prolongation of the gasping time
"CN(C)CCOC1c2ccc(Cl)cc2OC2(c3ccccc3)CC12 (centres unmarked) [Example 26, 3,4-(3-Chlorobenzo)-5-(2-dimethylaminoethyl)oxy-1-phenyl-2-oxabicyclo[4.1.0]heptane]",significantly prolonging the gasping time,79.1,–,–
"CN(C)CCCOC1c2ccc(Cl)cc2OC2(c3ccccc3)CC12 (centres unmarked) [Example 27, 3,4-(3-Chlorobenzo)-5-(3-dimethylaminopropyl)oxy-1-phenyl-2-oxabicyclo[4.1.0]heptane]",significantly prolonging the gasping time,62.0,–,significant prolongation of the gasping time
"CN(C)CCCON=C1c2ccc(O)cc2OC2(c3ccccc3)CC12 (centres unmarked) [Example 34, 3,4-(3-Hydroxybenzo)-5-(3-dimethylaminopropyl)oxyimino-1-phenyl-2-oxabicyclo[4.1.0]heptane]",–,79.9,–,–
"CN(C)CCCOC1c2ccc(O)cc2OC2(c3ccccc3)CC12 (centres unmarked) [Example 35, 3,4-(3-Hydroxybenzo)-5-(3-dimethylaminopropyl)oxy-1-phenyl-2-oxabicyclo[4.1.0]heptane]",–,69.0,–,–
